ChEMBL document CHEMBL3137667, “[Drug-induced liver injury; fourteenth updated edition of the bibliographic database of liver injuries and related drugs]” (Gastroenterol Clin Biol, 2004)

Tests used:
[1] = Highest frequency of acute liver toxicity observed during clinical trials, expressed as a percentage. [column '% AIGUE' in source]; conditions: human
[2] = human
[3] = human; remark: listed apart in the source
[4] = Proposed mechanism(s) of liver damage. [column 'MEC' in source]; conditions: human
[5] = human; remark: listed apart in the source
[6] = human; remark: listed apart in the source
[7] = human, serum
[8] = human; remark: listed apart in the source
[9] = human; remark: listed apart in the source
[10] = human; remark: listed apart in the source
[11] = Highest frequency of moderate liver toxicity observed during clinical trials, expressed as a percentage. [column '% BIOL' in source]; conditions: human
[12] = human, serum, 4383 h
[13] = human, serum; remark: listed apart in the source
[14] = human; remark: listed apart in the source
[15] = human; remark: listed apart in the source
[16] = Times to onset, minimal and maximal, observed in the indexed observations. [column 'DELAI' in source]; conditions: human
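Wherever Hepatotoxicity (association with vascular disease) is given: count of indexed literature references reporting vascular liver injury in humans, e.g. peliosis hepatitis, hepatic veno-occlusive disease or Budd-Chiari syndrome.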
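Wherever Hepatotoxicity (benign tumour) is given: value is a count of indexed literature references citing a benign tumour confirmed by histopathology.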
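Wherever Hepatotoxicity (choleostasis) is given: human cholestatic liver injury, shown by histopathology or by peak ALT or AST elevation over alkaline phosphatase ratio below 2, value counts indexed literature reports.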
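Wherever Hepatotoxicity (chronic liver disease) is given: chronic liver injury confirmed by histopathology or persistently raised serum aminotransferase activity beyond 6 months, value given as the count of indexed literature references.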
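Wherever Hepatotoxicity (cirrhosis) is given: value is a count of indexed literature references reporting cirrhosis confirmed by histopathology.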
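Wherever Hepatotoxicity (cytolytic) is given: human cytolytic liver injury, shown by histopathology or by a ratio above 5 of peak ALT or AST elevation to alkaline phosphatase elevation, value counts indexed references.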
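Wherever Hepatotoxicity (granulomatous hepatitis) is given: value is a count of indexed literature references reporting granulomatous liver disease confirmed by histopathology.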
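Wherever Hepatotoxicity (malignant tumour) is given: malignant tumour confirmed by histopathology, value gives the count of indexed literature references reporting it.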
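Wherever Hepatotoxicity (severe hepatitis) is given: human clinical data: severe hepatitis, meaning potentially life-threatening liver failure or clinically observed cases, the value counts how many indexed literature references report it.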
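Wherever Hepatotoxicity (steatosis) is given: steatosis confirmed by histopathology, value is the count of indexed references.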

Compound	Hepatotoxicity (acute) [1]	Hepatotoxicity (choleostasis) [2]	Hepatotoxicity (association with vascular disease) [3]	Hepatotoxicity (mechanism) [4]	Hepatotoxicity (malignant tumour) [5]	Hepatotoxicity (steatosis) [6]	Hepatotoxicity (moderate) [7]	Hepatotoxicity (severe hepatitis) [8]	Hepatotoxicity (benign tumour) [9]	Hepatotoxicity (cirrhosis) [10]	Hepatotoxicity (moderate) [11]	Hepatotoxicity (chronic liver disease) [12]	Hepatotoxicity (acute) [13]	Hepatotoxicity (granulomatous hepatitis) [14]	Hepatotoxicity (cytolytic) [15]	Hepatotoxicity (time to onset) [16]	other results
O=C(NO)c1ccc(O)c(O)c1	0%	0	0	Dose-dependant	0	0	1	0	0	0	0%	0	1	0	0	–	–
C=CCC1(C(C)C#CCC)C(=O)N=C(O)N(C)C1=O (stereo not given) [METHOHEXITAL]	0%	0	0	Dose-dependant	0	0	1	0	0	0	0%	0	0	0	0	–	–
O[C@H]1[C@H]2[C@H](O)CCCN2C[C@H]1O [TRIDOLGOSIR]	10.5%	0	0	Dose-dependant	0	0	2	0	0	0	52.6%	0	1	0	0	–	–
CCOC(=O)c1c(N)sc2c1CCN(Cc1ccccc1)C2 [TINORIDINE]	0%	0	0	Allergic	0	0	1	0	0	0	0%	0	1	0	0	–	–
Nc1nc(Cl)nc2c1ncn2[C@H]1C[C@H](O)[C@@H](CO)O1 [CLADRIBINE]	9.1%	0	1	–	0	0	4	0	0	0	13%	0	2	0	1	2 weeks - 6 months	–
O=C1C(CC[S+]([O-])c2ccccc2)C(=O)N(c2ccccc2)N1c1ccccc1 (stereo not given) [SULFINPYRAZONE]	–	1	0	–	0	0	0	–	0	0	–	0	1	0	0	10 days	Hepatotoxicity (acute) ([1]; Liver): 0%; Hepatotoxicity (severe hepatitis) ([8]; Liver): 0; Hepatotoxicity (moderate) ([11]; Liver): 0%
Cc1cn([C@H]2C[C@H](F)[C@@H](CO)O2)c(=O)[nH]c1=O [ALOVUDINE]	3.3%	0	0	–	0	0	0	1	0	0	0%	0	1	0	0	< 3 months	–
CNC(=C[N+](=O)[O-])NCCSCc1csc(CN(C)C)n1 [NIZATIDINE]	0.2%	0	0	–	0	0	3	1	0	1	3.5%	0	2	0	2	2 weeks	–
Nc1ccn([C@H]2CC[C@@H](CO)O2)c(=O)n1 [ZALCITABINE]	–	–	0	–	0	2	5	–	0	0	–	0	4	–	–	3 weeks - 10 months	Hepatotoxicity (acute) ([1]; Liver): 8.5%; Hepatotoxicity (choleostasis) ([2]; Liver): 0; Hepatotoxicity (severe hepatitis) ([8]; Liver): 0; Hepatotoxicity (moderate) ([11]; Liver): 14.9%; Hepatotoxicity (granulomatous hepatitis) ([14]; Liver): 0; Hepatotoxicity (cytolytic) ([15]; Liver): 3
C=CCNc1nc(NCC=C)nc(N2CCN(C(c3ccc(F)cc3)c3ccc(F)cc3)CC2)n1 [ALMITRINE]	0%	0	0	–	0	0	0	0	0	0	0%	0	1	0	1	1 week	–
CN(C)CC/C=C1/c2ccccc2Sc2ccc(Cl)cc21 [CHLORPROTHIXENE]	0%	1	0	–	0	0	0	0	0	0	0%	0	1	0	0	1 week	–
